Activity calls are given as the source filed them. The rule behind the calls is not given here.

For 4 compounds, mutagenic call results are on record in PubChem BioAssay AID1259407 (Chemical Carcinogenesis Research Information System (CCRIS), 2018).

In the series the test system is CCRIS mutagenicity, Ames/micronucleus/aberration tests. As to the kind of experiment: CCRIS mutagenicity studies.
Setting [1] is: Test System: AMES SALMONELLA TYPHIMURIUM, Strain/Indicator: TA98, Metabolic Activation: NONE, Method: PREINCUBATION
[2] abbreviates: Test System: AMES SALMONELLA TYPHIMURIUM, Strain/Indicator: TA100, Metabolic Activation: NONE, Method: PREINCUBATION
Setting [3] is: Test System: AMES SALMONELLA TYPHIMURIUM, Strain/Indicator: TA98, Metabolic Activation: HAMSTER, LIVER, S-9, AROCLOR 1254 (10%), Method: PREINCUBATION
The mark [4] stands for this setting: Test System: AMES SALMONELLA TYPHIMURIUM, Strain/Indicator: TA98, Metabolic Activation: RAT, LIVER, S-9, AROCLOR 1254 (10%), Method: PREINCUBATION
The mark [5] stands for this setting: Test System: AMES SALMONELLA TYPHIMURIUM, Strain/Indicator: TA100, Metabolic Activation: HAMSTER, LIVER, S-9, AROCLOR 1254 (10%), Method: PREINCUBATION
[6] abbreviates: Test System: AMES SALMONELLA TYPHIMURIUM, Strain/Indicator: TA100, Metabolic Activation: RAT, LIVER, S-9, AROCLOR 1254 (10%), Method: PREINCUBATION
The mark [7] stands for this setting: Test System: AMES SALMONELLA TYPHIMURIUM, Strain/Indicator: TA1535, Metabolic Activation: HAMSTER, LIVER, S-9, AROCLOR 1254 (10%), Method: PREINCUBATION
The mark [8] stands for this setting: Test System: AMES SALMONELLA TYPHIMURIUM, Strain/Indicator: TA1535, Metabolic Activation: NONE, Method: PREINCUBATION
[9] abbreviates: Test System: AMES SALMONELLA TYPHIMURIUM, Strain/Indicator: TA1535, Metabolic Activation: RAT, LIVER, S-9, AROCLOR 1254 (10%), Method: PREINCUBATION

As to `O=[N+]([O-])c1ccc2oc3ccccc3c2c1`, the mutagenic call was “active; positive” (Test System: AMES SALMONELLA TYPHIMURIUM, Strain/Indicator: TA98(1,8-DNP6), Metabolic Activation: NONE, Method: PREINCUBATION); “active; positive” (Test System: AMES SALMONELLA TYPHIMURIUM, Strain/Indicator: TA98(1,8-DNP6), Metabolic Activation: NONE, Method: SUSPENSION); “active; positive” (Test System: AMES SALMONELLA TYPHIMURIUM, Strain/Indicator: TA98(1,8-DNP6), Metabolic Activation: RAT, LIVER, S-9, PCB (5%), Method: PREINCUBATION); “active; positive” (Test System: AMES SALMONELLA TYPHIMURIUM, Strain/Indicator: TA98(NR), Metabolic Activation: NONE, Method: PREINCUBATION); “inactive; negative” (Test System: AMES SALMONELLA TYPHIMURIUM, Strain/Indicator: TA98(NR), Metabolic Activation: NONE, Method: SUSPENSION); “active; positive” (Test System: AMES SALMONELLA TYPHIMURIUM, Strain/Indicator: TA98(NR), Metabolic Activation: RAT, LIVER, S-9 (10%), Method: PREINCUBATION). For the same compound, the mutagenic call reads like this: (Test System: AMES SALMONELLA TYPHIMURIUM, Strain/Indicator: TA98(NR), Metabolic Activation: RAT, LIVER, S-9, 3-METHYLCHOLANTHRENE (10%), Method: PREINCUBATION) “active; positive”; (Test System: AMES SALMONELLA TYPHIMURIUM, Strain/Indicator: TA98(NR), Metabolic Activation: RAT, LIVER, S-9, BETA-NAPHTHOFLAVONE (10%), Method: PREINCUBATION) “active; positive”; (Test System: AMES SALMONELLA TYPHIMURIUM, Strain/Indicator: TA98(NR), Metabolic Activation: RAT, LIVER, S-9, PCB (5%), Method: PREINCUBATION) “active; positive”; (Test System: AMES SALMONELLA TYPHIMURIUM, Strain/Indicator: TA98(NR), Metabolic Activation: RAT, LIVER, S-9, PCB (10%), Method: PREINCUBATION) “active; positive”; (Test System: AMES SALMONELLA TYPHIMURIUM, Strain/Indicator: TA98(NR), Metabolic Activation: RAT, LIVER, S-9, PHENOBARBITAL (10%), Method: PREINCUBATION) “active; positive”; under setting [1], “active; positive”. Moreover, the mutagenic call is “active; positive” (Test System: AMES SALMONELLA TYPHIMURIUM, Strain/Indicator: TA98, Metabolic Activation: NONE, Method: SUSPENSION); “active; positive” (Test System: AMES SALMONELLA TYPHIMURIUM, Strain/Indicator: TA98, Metabolic Activation: RAT, LIVER, S-9, PCB (5%), Method: PREINCUBATION); “active; positive” (Test System: AMES SALMONELLA TYPHIMURIUM, Strain/Indicator: TA98, Metabolic Activation: RAT, LIVER, S-9, PCB, Method: SUSPENSION); “inactive; negative” under setting [2]; “inactive; negative” (Test System: AMES SALMONELLA TYPHIMURIUM, Strain/Indicator: TA100, Metabolic Activation: NONE, Method: SUSPENSION); “inactive; negative” (Test System: AMES SALMONELLA TYPHIMURIUM, Strain/Indicator: TA100, Metabolic Activation: RAT, LIVER, S-9, PCB (5%), Method: PREINCUBATION). In addition, the mutagenic call (Test System: AMES SALMONELLA TYPHIMURIUM, Strain/Indicator: TA100, Metabolic Activation: RAT, LIVER, S-9, PCB, Method: SUSPENSION) is “inactive; negative”.
Regarding `OCCCBr`, the mutagenic call (Test System: AMES SALMONELLA TYPHIMURIUM, Strain/Indicator: TA97, Metabolic Activation: HAMSTER, LIVER, S-9, AROCLOR 1254 (10%), Method: PREINCUBATION) was “inactive; negative”; the mutagenic call (Test System: AMES SALMONELLA TYPHIMURIUM, Strain/Indicator: TA97, Metabolic Activation: NONE, Method: PREINCUBATION) was “inactive; negative”; the mutagenic call (Test System: AMES SALMONELLA TYPHIMURIUM, Strain/Indicator: TA97, Metabolic Activation: RAT, LIVER, S-9, AROCLOR 1254 (10%), Method: PREINCUBATION) is “inactive; negative”; the mutagenic call under setting [3] is “inactive; negative”; the mutagenic call under setting [1] is “inactive; negative”; the mutagenic call under setting [4] was “inactive; negative”. Besides, the mutagenic call was “active; positive” under setting [5]; “active; positive” under setting [2]; “active; positive” under setting [6]; “active; positive” under setting [7]; “active; positive” under setting [8]; “active; positive” under setting [9].
As to `CCOC(=O)C1OC1(C)c1ccccc1` (centres undefined), the mutagenic call reads like this: (End Point: IN VITRO CHROMOSOMAL ABERRATIONS, Test System: CHINESE HAMSTER OVARY CELLS, Metabolic Activation: NONE) “active; positive; statistically significant increase, but not dose-related”; (End Point: IN VITRO CHROMOSOMAL ABERRATIONS, Test System: CHINESE HAMSTER OVARY CELLS, Metabolic Activation: RAT, LIVER, S-9, AROCLOR 1254) “active; positive”; under setting [3], “inactive; negative”; under setting [1], “inactive; negative”; under setting [4], “inactive; negative”; under setting [5], “inactive; negative”. The mutagenic call under setting [2] was “inactive; negative”; the mutagenic call under setting [6] is “inactive; negative”; the mutagenic call under setting [7] is “inactive; negative”; the mutagenic call under setting [8] was “inactive; negative”; the mutagenic call under setting [9] is “inactive; negative”; the mutagenic call (Test System: AMES SALMONELLA TYPHIMURIUM, Strain/Indicator: TA1537, Metabolic Activation: HAMSTER, LIVER, S-9, AROCLOR 1254 (10%), Method: PREINCUBATION) was “inactive; negative”. In addition, the mutagenic call runs as follows: (Test System: AMES SALMONELLA TYPHIMURIUM, Strain/Indicator: TA1537, Metabolic Activation: NONE, Method: PREINCUBATION) “inactive; negative”; (Test System: AMES SALMONELLA TYPHIMURIUM, Strain/Indicator: TA1537, Metabolic Activation: RAT, LIVER, S-9, AROCLOR 1254 (10%), Method: PREINCUBATION) “inactive; negative”.
As for `Cl/C=C(/Cl)c1c(Cl)c(Cl)c(Cl)c(Cl)c1Cl`, the mutagenic call (Test System: AMES SALMONELLA TYPHIMURIUM, Strain/Indicator: TA98, Metabolic Activation: NONE, Method: STANDARD PLATE) was “inactive; negative”; the mutagenic call (Test System: AMES SALMONELLA TYPHIMURIUM, Strain/Indicator: TA98, Metabolic Activation: RAT, LIVER, S-9, AROCLOR 1254, Method: STANDARD PLATE) is “inactive; negative”; the mutagenic call (Test System: AMES SALMONELLA TYPHIMURIUM, Strain/Indicator: TA100, Metabolic Activation: NONE, Method: STANDARD PLATE) is “inactive; negative”; the mutagenic call (Test System: AMES SALMONELLA TYPHIMURIUM, Strain/Indicator: TA100, Metabolic Activation: RAT, LIVER, S-9, AROCLOR 1254, Method: STANDARD PLATE) is “inactive; negative”.
